Measurements: US20260041683A1, “Compounds with Anti-Acinetobacter Baumannii Activity” (University of Kentucky Research Foundation, priority 2022, published 2026)
Values after ≈ are worked out from the molar mass of the structure shown. Read-outs that look alike come from different tables or passages of the source.

Columns and labels:
Ab ATCC 19606 [1] = assay: Time-kill curves
B. anthracis Sterne F32 = assay: microbe, parasite or virus in culture; format: cell-based; conditions: Bacillus anthracis, STERNEF32, read-out: MIC strain A
[2] = test system: S. epidermidis ATCC 12228; assay: MIC determination; format: cell-based; conditions: Staphylococcus epidermidis, ATCC12228; Table 5; Mueller-Hinton medium; C = S. epidermidis ATCC 12228; read-out: MIC strain C
Ab ATCC 19606 (strain I) = assay: MIC determination (double dilution, Mueller-Hinton broth); format: cell-based, Acinetobacter baumannii; conditions: Acinetobacter baumannii, ATCC19606
Experimental: All bacterial strains listed above were stored at −80° C. All strains were streaked on Mueller-Hinton (MH) plates and allowed to grow at 37° C. overnight. […] The resulting culture was diluted 1:1000 and added to the prepared serially doubly diluted compound solutions in 96-well plates. For M. smegmatis, a 1:100 dilution of the bacteria was done in MH. All MIC values were determined using 96-well plates with low evaporation seals at least in duplicate. For each row, one well was reserved for sterile control (which consisted of 200 μL of MH medium) and another well was reserved for growth control (which consisted of 100 μL of MH medium seeded with 100 μL of bacterial culture).
(§1) Minimum inhibitory concentrations (MIC) of all compounds from the series were measured in liquid cultures of different Ab strains by a double-dilution method in Mueller-Hinton broth. Initially, the activity of all 46 compounds against Ab ATCC 19606 (a control strain) and Ab ATCC BAA1605 (a multidrug-resistant strain) (Table 1; data shown for 27 representative compounds) was measured.

Ab ATCC 19606 [3] = assay: Development of resistance, 15-passage MIC assay; format: cell-based, Acinetobacter baumannii; conditions: Acinetobacter baumannii, ATCC19606, read-out: MIC before passaging
[4] = test system: Ab ATCC BAA1605 (strain J, multidrug-resistant); assay: MIC determination; format: cell-based; conditions: Acinetobacter baumannii
Experimental: (§2) All bacterial strains listed above were stored at −80° C. All strains were streaked on Mueller-Hinton (MH) plates and allowed to grow at 37° C. overnight. Enough colonies were scraped from the plate and suspended in MH broth with vortexing to reach an attenuance at 600 nm (OD600) of ˜0.5. The resulting culture was diluted 1:1000 and added to the prepared serially doubly diluted compound solutions in 96-well plates. For M. smegmatis, a 1:100 dilution of the bacteria was done in MH. All MIC values were determined using 96-well plates with low evaporation seals at least in duplicate. For each row, one well was reserved for sterile control (which consisted of 200 μL of MH medium) and another well was reserved for growth control (which consisted of 100 μL of MH medium seeded with 100 μL of bacterial culture).
as §1

S. aureus ATCC 25923 = assay: MIC determination; format: cell-based; conditions: Staphylococcus aureus, ATCC25923; Table 5; Mueller-Hinton medium; B = S. aureus ATCC 25923; read-out: MIC strain B
P. aeruginosa ATCC 27853 = assay: MIC determination; format: cell-based; conditions: Pseudomonas aeruginosa, ATCC27853
S. enterica ATCC 14028 = assay: MIC determination; format: cell-based; conditions: Salmonella enterica, ATCC14028; Table 5; Mueller-Hinton medium; H = S. enterica ATCC 14028; read-out: MIC strain H
E. coli MC1061 = assay: MIC determination; format: cell-based; conditions: Escherichia coli; Table 5; Mueller-Hinton medium; D = E. coli MC1061; read-out: MIC strain D
K. pneumoniae ATCC 27736 = assay: MIC determination; format: cell-based; conditions: Klebsiella pneumoniae, ATCC27736
Gram-negative bacteria = assay: MIC determination, panel statement; format: cell-based; conditions: moderate activity
E. coli ATCC BAA 2469 = assay: MIC determination; format: cell-based; conditions: Escherichia coli, BAA2469; Table 3
[5] = test system: all 43 strains of A. baumannii (41 CDC strains and 2 ATCC strains); assay: MIC value statistics for all A. baumannii strains; format: cell-based, Acinetobacter baumannii; conditions: of 43 A. baumannii strains
Experimental: as §2, with “[…].” for “For M. smegmatis, a 1:100 dilution of the bacteria was done in MH. All MIC values were determined using 96-well plates with low evaporation seals at least in duplicate.”
Having established that the observed activity is selective to A. baumannii, all synthesized compounds were tested against a panel of antibiotic resistant A. baumannii from the Antimicrobial Resistant (AR) Isolate Bank from the CDC along with strains I and J (Table Si). […]. Based on this statistical analysis, the best compound is 5e followed closely by 3e.

[6] = test system: K. pneumoniae ATCC BAA 1705; assay: MIC determination; format: cell-based; conditions: Klebsiella pneumoniae, BAA1705; Table 3
E. cloacae ATCC 13047 = assay: MIC determination; format: cell-based; conditions: Enterobacter cloacae, ATCC13047; Table 5; Mueller-Hinton medium; E = E. cloacae ATCC 13047; read-out: MIC strain E
[7] = test system: human embryonic kidney cells (HEK-293); assay: Mammalian cytotoxicity assay (resazurin); conditions: HEK-293, 32 μg/mL (printed 32 g/mL for 3e), 24 h
[8] = test system: murine red blood cells (mRBCs); assay: Hemolysis assay; format: cell-based; conditions: 32 g/mL as printed, 37° C.
Experimental: The cells were then washed using PBS (3×) by spinning at 1,000 rpm for 7 min. After washing, mRBCs were counted using a hemacytometer and diluted in PBS to 5×10^7 cells/mL. All the tested compounds were diluted (32 μg/mL and 8 μg/mL) in PBS in Eppendorf tubes (500 μL volume) and 100 μL were added to each of the columns of the 96-well plate except for column 1. A positive control (1% Triton-X®, TX), a negative control (DMSO), and wells with no mRBCs to account for any background absorbance were used in the 96-well plate. After the addition of the compounds to the plate, 100 μL of mRBCs were added to each well and plates were incubated at 37° C. for 30 min. The plates were then spun at 1,000 rpm for 10 min till the mRBCs settle at the bottom of the plates. 100 μL of supernatant was then transferred to a new 96-well plate and the absorbance at 500 nm was read using a spectrophotometer (SpectraMax M5). Percent hemolysis was calculated using the following equation after subtraction of the background absorbance.
To test the safety of the compounds, they were for exampled for hemolytic effect on murine red blood cells (FIG. 7).

[9] = Table 5, Mueller-Hinton medium, I = A. baumannii ATCC 19606, read-out: MIC strain I
[10] = Table 5, Mueller-Hinton medium, J = A. baumannii BAA1605, read-out: MIC strain J
[11] = Table 5, Mueller-Hinton medium, G = P. aeruginosa ATCC 27853, read-out: MIC strain G
[12] = Table 5, Mueller-Hinton medium, F = K. pneumoniae ATCC 27736, read-out: MIC strain F
[13] = Table 1, control strain, read-out: MIC Ab ATCC 19606
[14] = Table 1, multidrug-resistant strain, read-out: MIC Ab ATCC BAA 1605

SMILES | MIC (B. anthracis Sterne F32) | MIC [2] | MIC (Ab ATCC 19606 (strain I); [9]) | MIC [4, 10] | MIC (S. aureus ATCC 25923) | MIC (P. aeruginosa ATCC 27853; [11]) | MIC (S. enterica ATCC 14028) | MIC (E. coli MC1061) | MIC (K. pneumoniae ATCC 27736; [12]) | MIC (Gram-negative bacteria) | MIC (Ab ATCC 19606 (strain I); [13]) | MIC [4, 14] | number of compound/strain combinations with MIC value 0.25 μg/mL [5] | number of compound/strain combinations with MIC value 0.5 μg/mL [5] | number of compound/strain combinations with MIC value 1 μg/mL [5] | number of compound/strain combinations with MIC value 2 μg/mL [5] | number of compound/strain combinations with MIC value ≤0.125 μg/mL [5] | MIC (E. cloacae ATCC 13047) | further results
O=C(O)c1cn(C2CC2)c2cc(N3CCNCC3)c(F)cc2c1=O [CIP, ciprofloxacin, reference compound] | 1 µg/mL (≈ 3.02 µM) | ≤ 0.0625 µg/mL | 1 µg/mL (≈ 3.02 µM) | 2 µg/mL (≈ 6.04 µM) | ≤ 0.0625 µg/mL | 0.25 µg/mL (≈ 0.754 µM) | ≤ 0.0625 µg/mL | ≤ 0.0625 µg/mL | – | – | – | – | – | – | – | – | – | – | bacteriostatic or bactericidal (time-kill) (Ab ATCC 19606 [1]; 1×MIC and 4×MIC, up to 24 h): bactericidal; reduction of colony count (Ab ATCC 19606 [1]; time-kill): 4100 fold; MIC (Ab ATCC 19606 [3]): 2 µg/mL (≈ 6.04 µM)
O=C(NNc1cccc(Cl)c1)c1ccccn1 [Compound 2b] | > 64 µg/mL | > 64 µg/mL | 2 µg/mL (≈ 8.07 µM) | 1 µg/mL (≈ 4.04 µM) | > 64 µg/mL | > 64 µg/mL | 16 µg/mL (≈ 64.6 µM) | 4 µg/mL (≈ 16.1 µM) | 16 µg/mL (≈ 64.6 µM) | 4 to 16 µg/mL (≈ 16.1 to 64.6 µM) | 2 µg/mL (≈ 8.07 µM) | < 0.5 µg/mL | 13 | 13 | 12 | 3 | 2 | 4 µg/mL (≈ 16.1 µM) | MIC (K. pneumoniae ATCC 27736; Table 3, read-out: MIC K. pneumoniae ATCC 27736): 8 µg/mL (≈ 32.3 µM); MIC (E. coli ATCC BAA 2469): 8 µg/mL (≈ 32.3 µM); MIC ([4]; Table 3, positive control strain, read-out: MIC A. Baumannii ATCC BAA 1605): ≤ 0.5 µg/mL; MIC (P. aeruginosa ATCC 27853; Table 3, read-out: MIC P. aeruginosa ATCC 27853): > 128 µg/mL; MIC [6]: 16 µg/mL (≈ 64.6 µM)
O=C(NNc1cccc(F)c1)c1ccc2ccccc2n1 [Compound 12a] | – | – | – | – | – | – | – | – | – | – | – | – | 8 | 21 | 14 | – | – | – | inhibition of growth [7]: 40%; hemolysis [8]: 20%
O=C(NNc1ccc(Cl)cc1)c1ccc(F)cc1F [Compound 1e] | > 64 µg/mL | > 64 µg/mL | 0.25 µg/mL (≈ 0.884 µM) | 0.25 µg/mL (≈ 0.884 µM) | > 64 µg/mL | > 64 µg/mL | > 64 µg/mL | 16 µg/mL (≈ 56.6 µM) | > 64 µg/mL | 4 to 16 µg/mL (≈ 14.2 to 56.6 µM) | 0.25 µg/mL (≈ 0.884 µM) | 0.25 µg/mL (≈ 0.884 µM) | 17 | 12 | 5 | 1 | 8 | 16 µg/mL (≈ 56.6 µM) | –
